Reference: ChEMBL document CHEMBL1141868, “Synthesis, biological activity, and X-ray crystal structural analysis of diaryl ether inhibitors of malarial enoyl acyl carrier protein reductase. Part 1: 4'-substituted triclosan derivatives” (Bioorg Med Chem Lett, 2005)

Experiments:
[1] = target: T1, Enoyl-acyl-carrier protein reductase (Plasmodium falciparum, UniProt Q965D5); test: Inhibition of PfENR enzymatic activity
T1 sequence (Q965D5 whole entry): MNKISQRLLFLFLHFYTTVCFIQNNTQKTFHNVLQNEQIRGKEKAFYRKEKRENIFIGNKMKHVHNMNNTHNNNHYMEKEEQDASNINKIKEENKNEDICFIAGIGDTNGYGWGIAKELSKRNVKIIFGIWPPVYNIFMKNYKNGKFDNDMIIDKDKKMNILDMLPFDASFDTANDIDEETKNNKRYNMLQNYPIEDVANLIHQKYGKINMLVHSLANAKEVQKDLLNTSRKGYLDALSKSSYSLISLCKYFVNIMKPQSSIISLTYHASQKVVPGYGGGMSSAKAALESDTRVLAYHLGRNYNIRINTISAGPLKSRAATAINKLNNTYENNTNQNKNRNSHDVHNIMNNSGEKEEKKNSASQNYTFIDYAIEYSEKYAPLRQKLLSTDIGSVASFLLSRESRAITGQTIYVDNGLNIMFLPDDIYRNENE

Plasmodium falciparum [2] = test: Inhibition of drug-sensitive Plasmodium falciparum 3D7 after 72 hrs; assay type: functional, organism-based; conditions: 3D7, 72 h
Plasmodium falciparum [3] = test: Inhibition of drug-resistant Plasmodium falciparum Dd2 after 72 hrs; assay type: functional, organism-based; conditions: Dd2, 72 h

Row | Structure (SMILES) | IC50 [1] [µM] | EC50 (Plasmodium falciparum [2]) [µM] | EC50 (Plasmodium falciparum [3]) [µM]
1 | O=C(O)c1ccc(Oc2ccc(Cl)cc2O)c(Cl)c1 | 0.55 | 110 | 130
2 | O=C(c1ccc(Oc2ccc(Cl)cc2O)c(Cl)c1)N1CCOCC1 | 0.2 | 63.5 | 94.5
3 | Oc1ccccc1CNc1ccc(Oc2ccc(Cl)cc2O)c(Cl)c1 | 0.32 | 4.5 | 5.6
4 | O=S(=O)(Nc1ccc(Oc2ccc(Cl)cc2O)c(Cl)c1)c1ccccc1 | 0.37 | 55.1 | 77.5
5 | CNC(=O)c1ccc(Oc2ccc(Cl)cc2O)c(Cl)c1 | 0.31 | 77.8 | 100
6 | O=S(=O)(Nc1ccc(Oc2ccc(Cl)cc2O)c(Cl)c1)C(F)(F)F | 0.14 | > 120 | > 120
7 | NC(=O)Nc1ccc(Oc2ccc(Cl)cc2O)c(Cl)c1 | 0.16 | 110 | 120
8 | O=C(Nc1ccc(Oc2ccc(Cl)cc2O)c(Cl)c1)N1CCOCC1 | 0.25 | 66.8 | 86.4
9 | Oc1cc(Cl)ccc1Oc1ccc(-c2nn[nH]n2)cc1Cl | 0.413 | 120 | > 150
10 | NC(=O)c1ccc(Oc2ccc(Cl)cc2O)c(Cl)c1 | 0.12 | 96.3 | 100
11 | O=S(=O)(Nc1ccc(Oc2ccc(Cl)cc2O)c(Cl)c1)c1cccc2ccccc12 | 0.59 | 34.3 | 43.7
12 | CN(C)C(=O)c1ccc(Oc2ccc(Cl)cc2O)c(Cl)c1 | 0.46 | 68.4 | 95.7
13 | O=S(=O)(Nc1ccc(Oc2ccc(Cl)cc2O)c(Cl)c1)c1ccc2ccccc2c1 | 2.5 | 23.5 | 33.9
14 | Oc1ccc(Oc2ccc(Cl)cc2O)c(Cl)c1 | 0.22 | 65.3 | 87.8
15 | N#Cc1ccc(Oc2ccc(Cl)cc2O)c(Cl)c1 | 0.12 | 3.9 | 5.4
16 | N#Cc1ccccc1CNc1ccc(Oc2ccc(Cl)cc2O)c(Cl)c1 | 0.56 | 26.7 | 45.4
17 | O=C(NO)c1ccc(Oc2ccc(Cl)cc2O)c(Cl)c1 | 1.2 | 31.2 | 30.6
18 | N#CCc1ccc(Oc2ccc(Cl)cc2O)c(Cl)c1 | 0.19 | 23.1 | 36.4
19 | Oc1cc(Cl)ccc1Oc1ccc(NCc2ccccc2)cc1Cl | 0.14 | 35.8 | 47.5
20 | O=C(c1ccc(Oc2ccc(Cl)cc2O)c(Cl)c1)N1CCCCC1 | 0.68 | 11.7 | 18
21 | CC(=O)Nc1ccc(Oc2ccc(Cl)cc2O)c(Cl)c1 | 0.057 | 52.2 | 50.9
22 | O=C(Nc1ccc(Oc2ccc(Cl)cc2O)c(Cl)c1)c1ccccc1 | 0.17 | 57.2 | 83.9
23 | O=C(c1ccc(Oc2ccc(Cl)cc2O)c(Cl)c1)N1CCCC1 | 0.81 | 20.7 | 42.6
24 | O=[N+]([O-])c1ccc(Oc2ccc(Cl)cc2O)c(Cl)c1 | 0.18 | 2.1 | 3.2
25 | O=C(NCc1ccccc1)c1ccc(Oc2ccc(Cl)cc2O)c(Cl)c1 | 3 | 7.5 | 20.6
26 | Nc1ccc(Oc2ccc(Cl)cc2O)c(Cl)c1 | 0.36 | 120 | 140
27 | Oc1cc(Cl)ccc1Oc1ccc(Cl)cc1Cl [TRICLOSAN] | 0.073 | 2.9 | 3.9
